Source: article PMC10447463, “Data-mining unveils structure–property–activity correlation of viral infectivity enhancing self-assembling peptides” (Nature Communications, 2023)

Assays:
[1] = tested on: HIV-1 infection of TZM-bl cells; test: HIV-1 infectivity enhancement assay, β-galactosidase luminescence; assay type: cell-based
[2] = assay type: physicochemical; parameters: key to Fibril / Fibril Formation / TEM 2cat / Fibril: 1 = fibrils present; 0 non-fibrillar structures; settings: for Fibril / Fibril Formation: TEM, 1 mg/mL, uranyl acetate stain, qualitative
[3] = Turbidity, derived count rate of scattered light; assay type: physicochemical; settings: for Count Rate / kcps: derived count rate of scattered light at 633 nm, 173°, from zeta-potential measurement, 0.1 mg/mL in 1 mM KCl after 1 d at 1 mg/mL in PBS, turbidity / microscopic aggregation, mean of triplicate
In short: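 One-day room-temperature aggregation at 1 mg/mL in PBS (pH 7.4) preceded measurement; samples then went into 1 mM KCl. Triplicates per sample, two independent experiments averaged.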

[4] = n-fold infection vs virus only, relative to that of EF-C, 1.3 µM peptide
[5] = HIV-1 infection relative to EF-C; Fig 23 plot, panels A and B; mean of 3 values
[6] = HIV-1 infection relative to EF-C; Fig 23 plot, single data point, replicate 1
[7] = HIV-1 infection relative to EF-C; Fig 23 plot, single data point, replicate 2
[8] = HIV-1 infection relative to EF-C; Fig 23 plot, single data point, replicate 3
[9] = log10 of infection relative to EF-C, Figure 6C
[10] = log10 of derived count rate of scattered light, Figure 6C
[11] = logarithm of count rate in kcps
[12] = Feb2021; figures match the 1.3 µM column
[13] = Feb2021; infectivity relative to virus only
[14] = Feb2021; log10 of infectivity relative to EF-C
[15] = Feb2021; n-fold infectivity relative to EF-C
[16] = infectivity class (low / medium / high) of each library peptide; main list in c1-c6, same classes repeated in sub-lists of sequences containing the hydrophobicity/charge patterns P+,H0,P+,H0,P0,H0,P0; P+,H0,P0,H0,P0,H0,P0; P+,H0,P0,H0
[17] = log10 of HIV-1 infection of TZM-bl cells relative to EF-C; Fig S15 source data; asymmetric std dev errors
[18] = derived count rate of scattered light
[19] = Feb2021 run; infectivity n-fold relative to virus alone
[20] = Feb2021 run; log10 of infectivity relative to EF-C
[21] = Feb2021 run; n-fold infectivity relative to EF-C
[22] = derived count rate of scattered light, mean, std deviation in separate column

| Substance | Inf. rel. EF-C [1, 4] | Fibril / Fibril Formation [2] | Count Rate / kcps [3] | Log10 Infection Rel EF-C [1, 9] | Log10 Count Rate [3, 10] | Log10 Count Rate [3, 11] | Absolute Infectivity / RLU /s (Feb2021) [1, 12] | n-fold to virus (Feb2021) [1, 13] | Log10 of Rel to EFC (Feb2021) [1, 14] | Rel-to EFC (Feb-2021) [1, 15] | infectivity [1, 16] | Log10 Inf. rel. to EF-C [1, 17] | TEM: 1= fibrils, 0= aggregates (micelle), 0.5 = aggregates and fibrils, -1 = nothing obersved, STD prep [2] | Zeta Count Rate Category ([3]; category 1 / 0, no key given) | Zeta Count Rate / kcps [3, 18] | n-fold to virus (Feb2021) [1, 19] | Log10 of Rel to EFC (Feb2021) [1, 20] | Rel-to EFC (Feb-2021) [1, 21] | Zeta Count Rate / kcps [3, 22] | further results |
| --- | --- | --- | --- | --- | --- | --- | --- | --- | --- | --- | --- | --- | --- | --- | --- | --- | --- | --- | --- | --- |
| IKFLSVN [reference compound] | 0.07 | 1 | 137 kcps | – | – | – | – | – | – | – | – | – | – | – | – | – | – | – | – | infectivity enhancement, in words ([1]; fibril-forming peptides with positive zeta-potential, low count rate): do not enhance infectivity; Log10 Infection Rel EF-C ([1]; log10 of infection relative to EF-C, Figure 7B): -1.16 |
| KAKLTCT | 0.07 | 0 | 16.8 kcps | -1.177 | 1.225 | 1.225 | – | – | – | – | – | – | – | – | – | – | – | – | – | Inf. rel. EF-C [1, 5]: 0.0665; Inf. rel. EF-C [1, 6]: 0.09602; Inf. rel. EF-C [1, 7]: 0.05821; Inf. rel. EF-C [1, 8]: 0.04527 |
| KAKQAANMWQ [JG6] | – | – | – | – | – | – | 343.3 RLU /s | 1.2875 | -1.514 | 0.03064 | low | -1.514 | 0.5 | 1 | 690.5 kcps | – | – | – | – | – |
| KAQCTLP | 0.07 | 0 | 97.27 kcps | -1.153 | 1.988 | 1.988 | – | – | – | – | – | – | – | – | – | – | – | – | – | Inf. rel. EF-C [1, 5]: 0.07031; Inf. rel. EF-C [1, 6]: 0.07607; Inf. rel. EF-C [1, 7]: 0.09243; Inf. rel. EF-C [1, 8]: 0.04244 |
| KFKFQFFF [TG12] | – | – | – | – | – | – | 8657 RLU /s | 16.97 | -0.3937 | 0.404 | medium | -0.3936 | 1 | 1 | 3039 kcps | 16.97 | -0.3937 | 0.404 | 3039 kcps | Rel-to EFC (Feb-2021) ([1]; infectivity enhancement relative to EF-C (=1); Feb2021 run): 0.404; n-fold to virus (Feb2021) ([1]; infectivity n-fold relative to virus only; Feb2021 run): 16.97; Log10 of Rel to EFC (Feb2021) ([1]; log10 of infectivity relative to EF-C; Feb2021 run): -0.3937; Zeta Count Rate / kcps ([3]; derived count rate from zeta measurement, mean): 3039 kcps; Zeta Count Rate Category ([3]; key not given): 1 |
| KFKFQFN [BL7] | – | – | – | – | – | – | – | – | – | – | low | -1.744 | 1 | – | – | 0.757 | -1.744 | 0.01802 | 50.7 kcps | – |
| KFKFQFNMW [BL5 / KB13] | – | – | – | – | – | – | – | – | – | – | medium | -0.3503 | 1 | – | – | 18.76 | -0.3503 | 0.4464 | 610.2 kcps | – |
| KFKQFFINMWQ [VH14] | – | – | – | – | – | – | 14953.33333 RLU /s | 38.67 | -0.03603 | 0.9204 | – | -0.03603 | 0 | 1 | 8996 kcps | – | – | – | – | infectivity ([1]; infectivity class (low / medium / high) of the peptide in the sequence-pattern analysis, Fig. S22-A4; class limits not given): high |
| KFQFNMW | 0.18 | 1 | 331.6 kcps | -0.7437 | 2.521 | 2.521 | – | – | – | – | – | – | – | – | – | – | – | – | – | – |
